The structures appear in SMILES notation.

Among the data in patent publication US8791108B2, “Inhibitors of human immunodeficiency virus replication” (priority 2011, dated 2014) are EC50 values, retold here.

The test system of the first assay is recombinant NL-Rluc virus. Description: Inhibition of HIV replication (NL-RLuc luciferase reporter virus, MT-2 cells). The following applies: Human immunodeficiency virus 1, MT2, 120 h, read-out: Activity. Format: cell-based.
Regarding `CCCc1cc(CNC(=O)c2cc3nc(C)c([C@H](OC(C)(C)C)C(=O)O)c(-c4cc(F)c5c(c4C)CCCO5)n3n2)ccc1F` [Example 25, (2S)-2-(tert-butoxy)-2-(2-((4-fluoro-3-propylbenzyl)carbamoyl)-7-(8-fluoro-5-methylchroman-6-yl)-5-methylpyrazolo[1,5-a]pyrimidin-6-yl)acetic acid], the EC50 was less than 0.1 µM.
Consider `Cc1nc2cc(C(=O)NCc3ccc(F)c(C4CC4)c3)nn2c(-c2cc(F)c3c(c2C)CCCO3)c1[C@H](OC(C)(C)C)C(=O)O` [Example 26], for which the EC50 is less than 0.1 µM.
Consider `Cc1nc2cc(C(=O)NCc3ccc(F)c(C(F)F)c3)nn2c(-c2cc(F)c3c(c2C)CCCO3)c1[C@H](OC(C)(C)C)C(=O)O` [Example 27], for which the EC50 is less than 0.1 µM.
Take `Cc1nc2cc(C(=O)NCc3ccc(F)cc3S(C)(=O)=O)nn2c(-c2cc(F)c3c(c2C)CCCO3)c1[C@H](OC(C)(C)C)C(=O)O` [Example 28, (2S)-2-(tert-butoxy)-2-(2-((4-fluoro-2-(methylsulfonyl)benzyl)carbamoyl)-7-(8-fluoro-5-methylchroman-6-yl)-5-methylpyrazolo[1,5-a]pyrimidin-6-yl)acetic acid]: the EC50 was 0.1 to 1 µM.
As to `COc1cc(F)ccc1CNC(=O)c1cc2nc(C)c([C@H](OC(C)(C)C)C(=O)O)c(-c3cc(F)c4c(c3C)CCCO4)n2n1` [Example 29, (2S)-2-(tert-butoxy)-2-(2-((4-fluoro-2-methoxybenzyl)carbamoyl)-7-(8-fluoro-5-methylchroman-6-yl)-5-methylpyrazolo[1,5-a]pyrimidin-6-yl)acetic acid], the EC50 is less than 0.1 µM.
Take `CNC(=O)c1cc(F)ccc1CNC(=O)c1cc2nc(C)c([C@H](OC(C)(C)C)C(=O)O)c(-c3cc(F)c4c(c3C)CCCO4)n2n1` [Example 30, (2S)-2-(tert-butoxy)-2-(2-((4-fluoro-2-(methylcarbamoyl)benzyl)carbamoyl)-7-(8-fluoro-5-methylchroman-6-yl)-5-methylpyrazolo[1,5-a]pyrimidin-6-yl)acetic acid]: the EC50 lay in the range of 0.1 to 1 µM.
As to `CCCCc1ccc(CNC(=O)c2cc3nc(C)c([C@H](OC(C)(C)C)C(=O)O)c(-c4cc(F)c5c(c4C)CCCO5)n3n2)cc1` [Example 31, (2S)-2-(tert-butoxy)-2-(2-((4-butylbenzyl)carbamoyl)-7-(8-fluoro-5-methylchroman-6-yl)-5-methylpyrazolo[1,5-a]pyrimidin-6-yl)acetic acid], the EC50 was less than 0.1 µM.
`Cc1ccc(CN(C)C(=O)c2cc3nc(C)c([C@H](OC(C)(C)C)C(=O)O)c(-c4cc(F)c5c(c4C)CCCO5)n3n2)cc1` [Example 32, (2S)-2-(tert-butoxy)-2-(7-(8-fluoro-5-methylchroman-6-yl)-5-methyl-2-(methyl(4-methylbenzyl)carbamoyl)pyrazolo[1,5-a]pyrimidin-6-yl)acetic acid]: the EC50 was less than 0.1 µM.
For the compound `Cc1nc2cc(C(=O)N(C)Cc3ccccc3)nn2c(-c2cc(F)c3c(c2C)CCCO3)c1[C@H](OC(C)(C)C)C(=O)O` [Example 33, (2S)-2-(2-(benzyl(methyl)carbamoyl)-7-(8-fluoro-5-methylchroman-6-yl)-5-methylpyrazolo[1,5-a]pyrimidin-6-yl)-2-(tert-butoxy)acetic acid], the EC50 was less than 0.1 µM.
On the same count and under the same terms, with `Cc1nc2cc(C(=O)NCc3ccc4c(c3)OCO4)nn2c(-c2cc(F)c3c(c2C)CCCO3)c1[C@H](OC(C)(C)C)C(=O)O` [Example 34, (2S)-2-(2-((benzo[d][1,3]dioxol-5-ylmethyl)carbamoyl)-7-(8-fluoro-5-methylchroman-6-yl)-5-methylpyrazolo[1,5-a]pyrimidin-6-yl)-2-(tert-butoxy)acetic acid] the figure was less than 0.1 µM.
`COc1cc(CNC(=O)c2cc3nc(C)c([C@H](OC(C)(C)C)C(=O)O)c(-c4cc(F)c5c(c4C)CCCO5)n3n2)ccc1F` [Example 35, (2S)-2-(tert-butoxy)-2-(2-((4-fluoro-3-methoxybenzyl)carbamoyl)-7-(8-fluoro-5-methylchroman-6-yl)-5-methylpyrazolo[1,5-a]pyrimidin-6-yl)acetic acid]: the EC50 was less than 0.1 µM.

Staying with this assay, now noted: Human immunodeficiency virus 1, MT2, 120 h, read-out: EC50 μM.
As for `CNC(=O)c1cc(F)ccc1CNC(=O)c1cc2nc(C)c([C@H](OC(C)(C)C)C(=O)O)c(-c3cc(F)c4c(c3C)CCCO4)n2n1` [Example 30, (2S)-2-(tert-butoxy)-2-(2-((4-fluoro-2-(methylcarbamoyl)benzyl)carbamoyl)-7-(8-fluoro-5-methylchroman-6-yl)-5-methylpyrazolo[1,5-a]pyrimidin-6-yl)acetic acid], the EC50 was 3.2 µM.
